Earlier results, collected in patent US20060035881A1, “Use of targeted oxidative therapeutic formulation in endodontic treatment” (priority 2004, published 2006).

What was measured:
[1] = system: peroxide-sensitive E. coli; settings: infused into the blood of rabbits infected with peroxide-sensitive E. coli
E. coli = settings: increasing concentration of peroxide in rabbit or human blood containing E. coli

## OO [hydrogen peroxide, Hydrogen peroxide]
[1]
  bactericidal effect in vivo: no bactericidal effect
E. coli
  direct bactericidal activity ex vivo: no evidence of direct bactericidal activity
